Test results published in PubChem BioAssay (NCI).
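All cell lines were grown in 96-well plates and treated with compound for 48 hours. TGI marks complete inhibition of growth.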

How the values were obtained:
Assay in all cases: NCI anticancer screen, dose series, 48 h
[1] = system: 786-0 renal
[2] = system: SNB-75 CNS
[3] = system: DU-145 prostate
[4] = system: SF-295 CNS
[5] = system: HL-60(TB) leukemia
[6] = system: SR leukemia
[7] = system: K-562 leukemia
[8] = system: HS 578T breast
[9] = system: IGROV1 ovarian
[10] = system: SK-MEL-2 melanoma
[11] = system: OVCAR-4 ovarian
[12] = system: UO-31 renal
[13] = system: HCT-15 colon
[14] = system: UACC-257 melanoma
[15] = system: OVCAR-8 ovarian
[16] = system: MOLT-4 leukemia
[17] = system: OVCAR-5 ovarian
[18] = system: LOX IMVI melanoma
[19] = system: OVCAR-3 ovarian
[20] = system: NCI-H460 lung
[21] = system: HCT-116 colon
[22] = system: RPMI-8226 leukemia
[23] = system: SF-539 CNS
[24] = system: BT-549 breast
[25] = system: M14 melanoma
[26] = system: SNB-19 CNS
[27] = system: MALME-3M melanoma
[28] = system: U251 CNS
[29] = system: A549 NSCLC
[30] = system: COLO 205 colon
[31] = system: KM12 colon
[32] = system: SW-620 colon
[33] = system: MDA-N
[34] = system: HOP-92 NSCLC
[35] = system: SF-268 CNS
[36] = system: NCI-H226 lung
[37] = system: PC-3 prostate
[38] = system: RXF 393 renal
[39] = system: NCI-H522 lung
[40] = system: TK-10 renal
[41] = system: HCC-2998 colon
[42] = system: SK-MEL-28 melanoma
[43] = system: SN12C renal
[44] = system: MCF7 breast
[45] = system: SK-OV-3 ovarian
[46] = system: ACHN renal
[47] = system: EKVX NSCLC
[48] = system: MDA-MB-435
[49] = system: CCRF-CEM leukemia
[50] = system: A498 renal
[51] = system: HOP-62 NSCLC
[52] = system: T-47D breast
[53] = system: CAKI-1 renal
[54] = system: UACC-62 melanoma
[55] = system: HT29 colon
[56] = system: SK-MEL-5 melanoma
[57] = system: NCI-H23 lung
[58] = system: MDA-MB-231 breast
[59] = system: NCI/ADR-RES ovarian

## CC(C)C1=C(O)C2=C(C(=O)C1=O)C1(C)CCCC(C)(C)C1C(O)C2OC=O (stereo unspecified)
[1]
  TGI: 19 µM
[2]
  TGI: 23.7 µM
[3]
  TGI: 19.1 µM
[4]
  TGI: 29.3 µM
[5]
  TGI: 18.7 µM
[6]
  TGI: 6.52 µM
[7]
  TGI: > 100 µM
[8]
  TGI: 98.8 µM
[9]
  TGI: 22.2 µM
[10]
  TGI: 28.6 µM
[11]
  TGI: 22.8 µM
[12]
  TGI: 18.8 µM
[13]
  TGI: 16.4 µM
[14]
  TGI: 21.6 µM
[15]
  TGI: 20.1 µM
[16]
  TGI: 6.91 µM
[17]
  TGI: 30.9 µM
[18]
  TGI: 11.6 µM
[19]
  TGI: 25.9 µM
[20]
  TGI: 12.7 µM
[21]
  TGI: 20.3 µM
[22]
  TGI: 6.9 µM
[23]
  TGI: 31.5 µM
[24]
  TGI: 21.5 µM
[25]
  TGI: 29.1 µM
[26]
  TGI: 31.7 µM
[27]
  TGI: 23.7 µM
[28]
  TGI: 17.1 µM
[29]
  TGI: 35.8 µM
[30]
  TGI: 12.5 µM
[31]
  TGI: 24.7 µM
[32]
  TGI: 13.1 µM
[33]
  TGI: 28.1 µM
[34]
  TGI: 20.1 µM
[35]
  TGI: 24.4 µM
[36]
  TGI: 20.2 µM
[37]
  TGI: 30.6 µM
[38]
  TGI: 20.2 µM
[39]
  TGI: 27.5 µM
[40]
  TGI: 26.2 µM
[41]
  TGI: 19.2 µM
[42]
  TGI: 13.1 µM
[43]
  TGI: 23.2 µM
[44]
  TGI: 27.7 µM
[45]
  TGI: 27.1 µM
[46]
  TGI: 13.2 µM
[47]
  TGI: 21.7 µM
[48]
  TGI: 11.8 µM
[49]
  TGI: 8.47 µM
[50]
  TGI: 35.1 µM
[51]
  TGI: > 100 µM
[52]
  TGI: 27.9 µM
[53]
  TGI: 11.7 µM
[54]
  TGI: 19.4 µM
[55]
  TGI: 23.2 µM
[56]
  TGI: 18.9 µM
[57]
  TGI: 20.5 µM
[58]
  TGI: 22.5 µM

## CC(C)=CCC[C@@H](C)C1=C(O)C(N)=C(C)C(=O)C1=O
[1]
  TGI: > 100 µM
[2]
  TGI: > 100 µM
[3]
  TGI: > 100 µM
[4]
  TGI: > 72.3 µM
[5]
  TGI: 10.9 µM
[6]
  TGI: > 78.4 µM
[7]
  TGI: > 100 µM
[8]
  TGI: > 100 µM
[9]
  TGI: > 40.2 µM
[10]
  TGI: > 100 µM
[11]
  TGI: > 100 µM
[12]
  TGI: > 71.1 µM
[13]
  TGI: > 100 µM
[14]
  TGI: > 100 µM
[15]
  TGI: > 64.8 µM
[16]
  TGI: > 56.6 µM
[17]
  TGI: > 100 µM
[18]
  TGI: > 100 µM
[19]
  TGI: > 100 µM
[20]
  TGI: > 100 µM
[21]
  TGI: > 100 µM
[22]
  TGI: 98.6 µM
[23]
  TGI: 89.5 µM
[24]
  TGI: > 100 µM
[25]
  TGI: > 73.2 µM
[26]
  TGI: > 100 µM
[27]
  TGI: > 100 µM
[28]
  TGI: > 100 µM
[29]
  TGI: > 100 µM
[30]
  TGI: > 100 µM
[31]
  TGI: > 100 µM
[32]
  TGI: > 100 µM
[33]
  TGI: > 100 µM
[34]
  TGI: > 100 µM
[35]
  TGI: > 100 µM
[36]
  TGI: > 100 µM
[37]
  TGI: > 100 µM
[38]
  TGI: > 100 µM
[40]
  TGI: > 100 µM
[41]
  TGI: > 100 µM
[42]
  TGI: > 100 µM
[43]
  TGI: > 100 µM
[44]
  TGI: > 100 µM
[45]
  TGI: > 100 µM
[46]
  TGI: 65.4 µM
[47]
  TGI: > 100 µM
[48]
  TGI: > 100 µM
[49]
  TGI: > 100 µM
[50]
  TGI: > 100 µM
[51]
  TGI: > 100 µM
[52]
  TGI: > 88.4 µM
[59]
  TGI: 24.7 µM
[53]
  TGI: > 83.6 µM
[54]
  TGI: > 93.4 µM
[55]
  TGI: > 100 µM
[56]
  TGI: > 86 µM
[57]
  TGI: > 100 µM
[58]
  TGI: > 100 µM
